How the values were obtained:
[1] = test system: testicular steroidogensis; experiment: Inhibitory activity against testicular steroidogenesis in men in good health, single intranasal dose; format: in vivo
Method: The inhibitory activity of [D Ser (tbu)^6 of des GlyNH^10 ] LH-RH ethylamide (described in German application Ser. No. 2,438,350) against testicular steroidogensis in men in good health was determined on men in good health aged 30 to 40 years. The said product was administered intranasally at a dose of 500 μg in a few drops of distilled water at 8 A.M. on the third day of the test. For 2 days prior to the treatment and for 6 days after the treatment, samples of blood were taken daily at 8 A.M., 3 P.M. and 10 P.M. On the day of administration of the LH-RH agonist, blood samples were taken at 11 A.M. and 6 P.M.
The seric concentrations of LH and FSH were measured by radioimmuno-logic dosages with double antibodies and the antibodies for measuring LH and FSH were furnished by the National Pituitary Agency of N.I.H. in Bethesda, Md. The seric concentrations of steroids was measured by radio-immuno-logic dosages in which one ml of serum was extracted with ether and the steroids were separated on a LH-20 column before measuring with radioimmuno-logic dosages. The radio-immuno-logic dosage results were determined by a program derived from model II of Rodbard et al [Second Karolinska Symposium on Research Methods in Reproductive Endroerinology Diczfalusky Editor, Copenhague (1970), p. 79-103]. The statistical significance was determined by the "multiple level test" of Duncan-Kramer [Kramer, Biometrics, Vol 12 (1956), p. 307]. The results are shown in the graphs on sheet 1 of the Figures filed herewith.

[2] = test system: testicular steriodogenosis; experiment: Inhibitory activity on testicular steroidogenesis in a patient with prostate cancer; format: in vivo, human; settings: 500 μg intranasally twice a day
Description: The inhibitory activity of [D Ser (tbu)^6 of des GlyNH2^10 ] […] The results are reported in the graphs of sheet 2 of the Figures.

ovarian steroidogenosis = experiment: Inhibitory activity on ovarian steroidogenesis in women; format: in vivo; settings: for reduction of seric levels of progesterone compared to the controls: typical levels (sheet 3)
Method: The inhibitory activity of [D Ser (tbu)^6 of des GlyNH2^10 ] LH-RH ethylamide on ovarian steroidogenosis in women was determined on 6 women aged 26 to 35 years with normal and regular menstrual cycles and without prior endocrinal or gynecological problems. The study was conducted for 6 consecutive cycles consisting of 2 pretreatment cycles, 2 treatment cycles and 2 post-treatment cycles. Two drops of a solution containing 500 μg of [D Ser (tbu)^6 des GlyNH2^10 ] LH-RH ethylamide were deposited on each nostril at 8 A.M. and 5 P.M. of a day between the 4th and 9th day after the peak of LH-day 0. Daily blood samples were taken between 4 and 6 P.M. to measure seric levels of LH, FSH, progesterone and estradiol which were determined by radioimmumo-logictests with double antibodies. The antibodies to measure LH and FSH were furnished by the National Pituitory Agency of N.I.H. of Bethesda, Md.
Estradiol and progesterone were measured with highly specific antibodies developed against 7-(O-carboxymethyl)-oxime of estradiol and 12-(O-carboxymethyl)-oxime of progesterone, respectively [3H] 17β-estradiol and ^125 I-progesterone-12-[O-carboxymethyl)-oxime]used as tracers. The serum was extracted with benzene and the steroids were separated with a LH-20 column before the determination. The radioimmunological results were exploited by the program derived from model II of Rodbard and Lewald as in Example 1 and the statistical significance was measured by the multiple level test of Ducan-Kramer of Example 1. The results are shown in the graphs of sheets 3 to 5 of the Figures.

[3] = 3rd day following administration, intranasal 500 μg
[4] = after single intranasal dose of 500 μg

CCNC(=O)[C@@H]1CCCN1C(=O)[C@H](CCCNC(=N)N)NC(=O)[C@H](CC(C)C)NC(=O)[C@@H](COC(C)(C)C)NC(=O)[C@H](Cc1ccc(O)cc1)NC(=O)[C@H](CO)NC(=O)[C@H](Cc1c[nH]c2ccccc12)NC(=O)[C@H](Cc1c[nH]cn1)NC(=O)[C@@H]1CCC(=O)N1 [[D Ser (tbu)^6 des GlyNH2^10] LH-RH ethylamide]
concentration of 17-OH-progesterone relative to the initial control values [1, 3]: 40% | concentration of testosterone relative to the initial control values [1, 3]: 50% | day on which the steroid level returned to normal [1, 4]: fourth day | duration of the drop of seric levels of testicular steroids (testosterone and its precursors) [1, 4]: 3 days | LH and FSH plasmatic levels ([1]; intranasal 500 μg): increase | seric concentration of pregnenolone, 17-OH-pregnenolone, progesterone, 17-OH-progesterone, Δ5-androstene-3β,17β-diol and testosterone ([1]; on the day of treatment, intranasal 500 μg): increased | diminution of the level of testosterone ([1]; single intranasal dose of 500 μg, human, 3rd day following administration): 50% | androgenic steroids (plasmatic level) ([2]; prostate cancer patient): diminution | level of testosterone ([2]; two weeks of treatment): stabilized at a very low level | level of progesterone reduced as compared to the controls (ovarian steroidogenosis; 12 cycles, sheet 5, scale 13 to 127%): 46% | level of progesterone as % of control values (pretreatment cycles = 100%) (ovarian steroidogenosis; cycles of post-treatment, 12 cycles): 99% | level of progesterone as % of control values (pretreatment cycles = 100%) (ovarian steroidogenosis; cycles of treatment, 12 cycles): 46% | reduction of seric levels of progesterone compared to the controls (ovarian steroidogenosis; first cycle of treatment): 13% | reduction of seric levels of progesterone compared to the controls (ovarian steroidogenosis; second cycle of treatment): 34% | level of seric progesterone in the 2 cycles of treatment (ovarian steroidogenosis; sheet 4): accelerated diminution
